Data: PMC8876525 (Viruses, 2022)
Marks after values point to notes of the source that are not given here.

Assays:
HBV [1] = assay: Secreted HBV DNA in HepAD38 culture supernatant (RT-qPCR); format: cell-based; conditions: for EC50: read-out: EC50 (secreted HBV DNA); for Residual HBV DNA level (secreted) relative to DMSO control: 20 μM compound
HBV capsid = HBV capsid (Hepatitis B virus genotype D subtype ayw, UniProt P03146); assay: Intracellular HBV capsid formation; format: cell-based; conditions: 6 days; for Effect on intracellular HBV capsid formation at single concentration: HepAD38 or HepG2-HBV1.3 cells, compounds 10 μM, ETV 25 nM, BAY 41-4109 2 μM
HBV capsid, sequence (P03146 whole entry): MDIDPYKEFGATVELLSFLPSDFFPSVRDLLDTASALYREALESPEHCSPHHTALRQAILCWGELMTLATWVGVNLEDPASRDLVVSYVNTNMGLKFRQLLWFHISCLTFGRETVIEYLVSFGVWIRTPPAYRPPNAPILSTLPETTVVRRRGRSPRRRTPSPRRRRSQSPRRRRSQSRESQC

HBsAg = assay: Secreted HBsAg ELISA; format: cell-based, HBV; conditions: 6 days, ETV 25 nM, BAY 41-4109 2 μM
HBV encapsidated pgRNA = assay: Encapsidated pgRNA and total HBV RNAs (Northern blot); format: cell-based; conditions: HepAD38 cells, BAY 41-4109 2 μM; for Effect on intracellular total HBV RNAs: C-18, C-39 5 μM; for Effect on HBV encapsidated pgRNA: C-18, C-39, C-19 5 μM, ETV 25 nM
HBc = HBc (Hepatitis B virus genotype D subtype ayw, UniProt P03146); assay: Immunofluorescence of HBV core protein in HepAD38 cells; format: cell-based; conditions: 3 days, BAY 41-4109 2 μM; for HBc localisation / aggregation: C-18 and C-39 5 μM
HBc, sequence (P03146 whole entry): as above

Cp149 protein = Cp149 protein (Hepatitis B virus genotype D subtype ayw, UniProt P03146); assay: Cp149 capsid assembly in vitro, transmission electron microscopy; format: biochemical, HBV; conditions: Cp149 5 μM dimer, 300 mM NaCl, 150 mM HEPES pH 7.5; BAY 41-4109 5 μM 3 days, C-39 20 μM 3 and 7 days
Cp149 protein, sequence (P03146 1-149): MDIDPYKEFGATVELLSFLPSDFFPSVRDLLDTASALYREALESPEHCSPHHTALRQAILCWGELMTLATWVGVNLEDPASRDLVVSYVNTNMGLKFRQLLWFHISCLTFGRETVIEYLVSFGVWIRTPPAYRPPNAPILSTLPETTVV

[2] = CCK-8 cytotoxicity assay in HepAD38 cells; format: cell-based, Human; conditions: human, 6 days
HBV [3] = assay: Secreted HBV DNA in HepG2-HBV1.3 culture supernatant (RT-qPCR); format: cell-based; conditions: HepG2-HBV1.3 cells
[4] = CCK-8 cytotoxicity assay in HepG2-HBV1.3 (HepG2) cells; format: cell-based; conditions: human
HBeAg = assay: Secreted HBeAg ELISA; format: cell-based, HBV; conditions: 6 days
HBV 3.5 kb RNA = assay: Intracellular HBV 3.5 kb RNA (RT-qPCR); format: cell-based; conditions: 6 days
HBV core DNA = assay: Intracellular HBV core DNA (qPCR) and replicative intermediates (Southern blot); format: cell-based; conditions: 6 days; for Effect on intracellular HBV core DNA: qPCR
HBV [5] = assay: HepG2-NTCP de novo HBV infection model (viral markers, cccDNA Taq-Man qPCR); format: cell-based; conditions: HepG2-NTCP cells, 5 μM
HepAD38 cells = assay: CCK-8 cytotoxicity assay in HepAD38 cells; format: cell-based, Human
wild-type HBV = assay: Drug susceptibility assay, HepG2 transfected with HBV1.1-WT; format: cell-based; conditions: Hepatitis B virus, 144 h; wild-type HBV in HepG2, secreted HBV DNA, 6 days; read-out: viral replication EC50
[6] = tested on: ETV-resistant mutant (rtL180M/S202G/M204V) HBV; assay: Drug susceptibility assay, HepG2 transfected with ETV-resistant mutant; format: cell-based; conditions: Hepatitis B virus, HepG2, 144 h, read-out: viral replication EC50
[7] = Hepatitis B virus, 144 h, HepAD38 cells, 6 days

Compound	Effect on intracellular HBV capsid formation at single concentration (HBV capsid)	SI (CC50/EC50) (HBV [1]; HepAD38 cells)	EC50 (HBV [1]; [7]) [nM]	CC50 at 6 days [2] [nM]	also measured
COC(=O)C1=C(C)NC(c2ncc(F)cc2F)=N[C@H]1c1ccc(F)cc1Cl [BAY 41-4109, reference compound]	dramatically inhibited capsid formation				EC50 (HBV [1]; HepAD38 cells, 6 days): 67 ± 10 nM; Effect on secreted HBsAg (HBsAg; HepAD38 cells): no impact on HBsAg production; Effect on secreted HBsAg (HBsAg; HepG2-HBV1.3 cells): no impact on HBsAg production; Effect on intracellular total HBV RNAs (HBV encapsidated pgRNA): slight decrease; Effect on HBV encapsidated pgRNA (HBV encapsidated pgRNA): markedly downregulated; HBc localisation / aggregation (HBc): induced punctate HBc aggregation within the nucleus; HBc level by immunofluorescence (HBc; C-39 5 μM): significantly decreased the HBc level; Morphology of assembled Cp149 particles (TEM) (Cp149 protein): large irregular particles
Cc1onc(C(=O)Nc2ccc(F)c(F)c2)c1COc1cccc(C(F)(F)F)c1 [Compound C-1]					Residual HBV DNA level (secreted) relative to DMSO control (HBV [1]; HepAD38 cells): 62%
O=C(Nc1ccc(F)c(F)c1)c1cc2nccc(-c3cccs3)n2n1 [Compound C-2]					Residual HBV DNA level (secreted) relative to DMSO control (HBV [1]; HepAD38 cells): 44%
Cc1nnc2ccc(N3CCCC(C(=O)Nc4ccc(F)c(Cl)c4)C3)nn12 (centres unmarked) [Compound C-4]					Residual HBV DNA level (secreted) relative to DMSO control (HBV [1]; HepAD38 cells): 21%
Nc1nc(N2C(=O)C3CC=CCC3C2=O)nn1-c1ccccc1 (centres unmarked) [Compound C-5]					Residual HBV DNA level (secreted) relative to DMSO control (HBV [1]; HepAD38 cells): 51%
Cc1cc(O)c(C2=Nc3c(C(N)=O)cnn3C(c3cccc(Cl)c3)C2)c(=O)o1 (centres unmarked) [Compound C-6]					Residual HBV DNA level (secreted) relative to DMSO control (HBV [1]; HepAD38 cells): 36%
O=C(CSc1nnc(-c2cccs2)n1CCc1ccccc1)Nc1ccc(F)cc1 [Compound C-7]	moderate inhibition	>54.7	1830 ± 440	> 100000	
COc1cccc(-c2noc([C@@H]3CCCN3C(=O)Nc3ccc(F)c(Cl)c3)n2)c1 [Compound C-9]	did not affect the capsid formation	23.4	1140 ± 230	26600 ± 2000	
Cc1cccc(NC(=O)c2ccc3nnc(SCC(=O)Nc4ccc(F)c(F)c4)n3c2)c1 [Compound C-16]	did not affect the capsid formation	56.3	1290 ± 350	72400 ± 1900	
Cc1cc2c(cc1S(=O)(=O)N1CCCC(C(=O)Nc3ccc(F)c(Cl)c3)C1)OC(C)C(=O)N2 (centres unmarked) [Compound C-18]	strongly inhibited	131.2	110 ± 30	14800 ± 700	SI (CC50/EC50) (HBV [3]): 147.1; EC50 (HBV [3]; Hepatitis B virus, 144 h, 6 days): 140 nM; CC50 at 6 days [4]: 20600 nM; Effect on intracellular HBV capsid formation, concentration series (HBV capsid; HepG2-HBV1.3 cells): downregulated; Effect on secreted HBeAg (HBeAg; HepAD38 cells): reduced the HBeAg level; Effect on secreted HBeAg (HBeAg; HepG2-HBV1.3 cells): downregulated; Effect on secreted HBsAg (HBsAg; HepAD38 cells): no impact on HBsAg; Effect on intracellular HBV 3.5 kb RNA (HBV 3.5 kb RNA; HepAD38 cells): dramatic decrease; Effect on intracellular HBV 3.5 kb RNA (HBV 3.5 kb RNA; HepG2-HBV1.3 cells): downregulated; Effect on HBV replicative intermediates (HBV core DNA; HepAD38 cells, Southern blot): notably downregulated; Effect on intracellular HBV core DNA (HBV core DNA; HepAD38 cells): dramatic decrease; Effect on intracellular HBV core DNA (HBV core DNA; HepG2-HBV1.3 cells): downregulated; Effect on intracellular total HBV RNAs (HBV encapsidated pgRNA): slight decrease; Effect on HBV encapsidated pgRNA (HBV encapsidated pgRNA): markedly downregulated; Effect on cccDNA formation, treatment together with viral inoculum (day 0) (HBV [5]): prevented the formation of cccDNA during the early postentry step; Effect on pre-established cccDNA, treatment 4 days after infection (day 4) (HBV [5]): minor effect; HBc localisation / aggregation (HBc): induced punctate HBc aggregation within the nucleus
O=C(Nc1ccc(F)c(F)c1)c1cc(S(=O)(=O)N(CCc2ccccc2)Cc2ccccc2)ccc1F [Compound C-19]	did not affect the capsid formation	194.1	390 ± 130	75300 ± 5200	Effect on HBV encapsidated pgRNA (HBV encapsidated pgRNA): slight effects
O=C(CSc1nnc2ccc(C(=O)Nc3cccc(F)c3)cn12)Nc1ccc(F)c(F)c1 [Compound C-25]		114.6 ^a	290 ± 20	33200 ± 1900	
CC1(C(=O)NCc2ccc(F)cc2)CCCN(C(=O)Nc2ccc(F)c(Cl)c2)C1 (centres unmarked) [Compound C-27]		72.8 ^a	1120 ± 50	81500 ± 5800	
Cc1cc2c(cc1S(=O)(=O)N1CCCC(C(=O)Nc3ccc(F)c(Cl)c3)C1)OCC(=O)N2 (centres unmarked) [Compound C-29]		14.1 ^a	1290 ± 10	18200 ± 2200	Cytotoxicity in words (HepAD38 cells): medium cytotoxicity
CC(=O)N1c2ccc(S(=O)(=O)N3CCCC(C(=O)Nc4ccc(F)c(Cl)c4)C3)cc2CC1C (centres unmarked) [Compound C-31]		96.0 ^a	260 ± 30	25000 ± 3300	
CC1Oc2ccc(S(=O)(=O)N3CCCC(C(=O)Nc4ccc(F)c(Cl)c4)C3)cc2NC1=O (centres unmarked) [Compound C-35]		23.9 ^a	410 ± 10	9800 ± 1000	Cytotoxicity in words (HepAD38 cells): medium cytotoxicity
CCOC(=O)c1c(C)[nH]c(C)c1S(=O)(=O)N1CCCC(C(=O)Nc2ccc(F)c(Cl)c2)C1 (centres unmarked) [Compound C-37]		31.3 ^a	350 ± 50	11000 ± 700	
O=C(Nc1ccc(F)c(Cl)c1)C1CCCN(S(=O)(=O)c2c[nH]c(C(=O)N3CCCC3)c2)C1 (centres unmarked) [Compound C-40]		32.3 ^a	390 ± 10	12600 ± 700	Cytotoxicity in words (HepAD38 cells): medium cytotoxicity
Cc1nc(-c2csc(S(=O)(=O)N3CCCC(C(=O)Nc4ccc(F)c(Cl)c4)C3)c2)no1 (centres unmarked) [Compound C-41]		1542 ^a	62 ± 13	95600 ± 15700	
C=C1[C@H](CO)[C@@H](O)C[C@@H]1n1cnc2c(=O)[nH]c(N)nc21 [ETV, Entecavir, reference compound]	much less or no inhibition effects				EC50 (HBV [1]; Hepatitis B virus, HePAD38, 144 h): 3 ± 1 nM; Effect on secreted HBsAg (HBsAg; HepAD38 cells): no impact on HBsAg production; Effect on secreted HBsAg (HBsAg; HepG2-HBV1.3 cells): no impact on HBsAg production; Effect on HBV encapsidated pgRNA (HBV encapsidated pgRNA): upregulated; EC50 (wild-type HBV): 3.2 nM; EC50 [6]: 6.1 nM
